Laboratory results as given in patent US20130274281A1, “METHODS OF TREATING METASTATIC BREAST CANCER WITH 4-IODO-3-NITROBENZAMIDE AND IRINOTECAN” (BiPar Sciences, Inc., priority 2010, published 2013).

Tests used:
advanced solid tumors [1] = assay type: in vivo, human
Protocol: Phase 1: 4-iodo-3-nitrobenzamide is administered intravenously twice weekly (days 1 and 4 of each week) for 3 weeks, followed by a one week 4-iodo-3-nitrobenzamide treatment-free period per one 28-day cycle. Cycle one (day 1 through day 28) is defined as the Safety Phase of the study during which DLTs is assessed and the MTD is determined. The remainder of the study is termed the Maintenance Phase. A subject may participate in this study until he/she experiences a drug intolerance or disease progression. […] For non-measurable disease, best medical practices are used to determine disease progression.
In cohort A (starting dose), a single subject receives 4-iodo-3-nitrobenzamide twice weekly at a dose level of 0.5 mg/kg based on weight measured at screening. If this subject experiences a grade 2 toxicity or higher, then 3 additional subjects would be enrolled in this cohort (only 2 additional subjects would be enrolled in this cohort if the initial subject receives at least 80% of the planned cycle 1 doses). If no additional subjects dosed in this cohort experience a DLT, then dose escalation would occur as below. If no DLT occurs in the initial subject, dose escalation would occur as below. The safety review group has the ability to recommend dose escalation (opening of a new cohort), without expansion with additional subjects, for cases of grade 2 toxicity seen in a single subject that are deemed not to be clinically relevant and/or study treatment-related. Dose Escalation Prior to Grade 2 Toxicity (Potential Cohorts B-J): Until a subject experiences a grade 2 toxicity or higher, one subject would be initially enrolled in all subsequent cohorts at planned 100% dose level increases, with possible cohort expansion as described for cohort A. Safety data are reviewed after 6 doses of 4-iodo-3-nitrobenzamide, and a decision to escalate to the next cohort would be made if no subject experiences a grade 2 toxicity or higher. […]

advanced solid tumors [2] = experiment: 4-iodo-3-nitrobenzamide in combination with cytotoxic chemotherapeutic agents, safety and best response; assay type: in vivo, human
Protocol: 42 subjects (advanced solid tumors) were treated with 4-iodo-3-nitrobenzamide in combination with cytotoxic chemotherapeutics agents (topotecan, temozolomide, gemcitabine, or carboplatin/taxol) at 4-iodo-3-nitrobenzamide doses of 1.1, 2.0, 2.8, 4.0 and 5.6 mg/kg.

Bcr-ab1 = details: background statement; read-out: IC50, inhibition of Bcr-ab1 phosphorylation; cited from earlier work
[3] = tested on: panel of 63 other kinases, including native c-Ab1; details: background statement; cited from earlier work
[4] = tested on: cells not expressing Bcr-Ab1; details: background statement; cited from earlier work

Row | Compound | best response measured to date (advanced solid tumors [1]; 24 subjects, monotherapy 0.5-8.0 mg/kg) | dose limiting toxicities (DLTs) (advanced solid tumors [1]; in vivo) | cycles of treatment completed with continued stable disease (advanced solid tumors [1]; one subject, monotherapy) | tolerability (advanced solid tumors [2]; 42 subjects, advanced solid tumors, with topotecan, temozolomide, gemcitabine or carboplatin/taxol, BA 1.1, 2.0, 2.8, 4.0 and 5.6 mg/kg, preliminary safety data) | relation of serious adverse events to study drug (advanced solid tumors [2]; 42 subjects, combination with cytotoxic agents, judged by study investigators) | SAEs attributed to drug (advanced solid tumors [2]; either study (monotherapy, 24 subjects; combination with cytotoxic agents, 42 subjects)) | additional toxicities when combined with standard cytotoxic chemotherapy (advanced solid tumors [2]; safety data of both studies) | potentiation of known toxicities of standard chemotherapeutic agents (advanced solid tumors [2]; safety data of both studies) | IC50 (Bcr-ab1) | inhibition of a panel of 63 other kinases, including native c-Ab1 [3] | toxicity towards cells not expressing Bcr-Ab1 [4]
1 | NC(=O)c1ccc(I)c([N+](=O)[O-])c1 [4-iodo-3-nitrobenzamide] | stable disease present through at least cycle 2 of the study for six subjects | no dose limiting toxicities (DLTs) were observed at any dose level | 9 cycles | well tolerated at all dose levels tested | deemed not related to study drug | no SAEs attributed to 4-iodo-3-nitrobenzamide in either study | would not cause any additional toxicities | no evidence that 4-iodo-3-nitrobenzamide would potentiate any known toxicities |  |  | 
2 | NC(=O)c1cccc(-c2cc(Nc3ccc(OC(F)(F)F)cc3)ncn2)c1 [GNF-2] |  |  |  |  |  |  |  |  | 267 nM | does not inhibit | complete lack of toxicity
